Measured values published in patent US6794387B2, “Pharmaceutically active compounds” (Pfizer Inc., priority 2001, dated 2004).
pIC50: −log10 of the molar value.

What was measured:
[1] = In vitro metabolism in human hepatic microsomal fractions (HLM half-life); format: in vitro ADME; conditions: human liver microsomes, initial substrate concentration 1 μM, 37° C.
Protocol: In vitro metabolism experiments were carried out in the hepatic microsomal fractions from man. Transplant-quality human liver tissue was obtained from the International Institute for the Advancement of Medicine (Exton, Pa., USA). Microsomes were prepared according to the method described in Biochemical Pharmacology, […], 48, 2147-2156 and stored at −80° C. The concentrations of protein and cytochrome P450 were determined by standard methods described in Journal of Biological Chemistry, 1951, 193, 265-275 and Journal of Biological Chemistry, 1964, 239, 2370-2378.
Microsomal incubations (1.5 ml) were prepared containing 0.5 μM cytochrome P450, 200 mM phosphate buffer (pH 7.4), 0.1 M MgCl2, 0.1 M isocitric acid, 1 unit/ml isocitrate dehydrogenase and 20 mM β-NADP. […] The extracts were evaporated to dryness and analysed by LC-MS/MS (Hewlett Packard HP1100 binary pump, Hypersil HS100 C18, 5 cm by 4.6 mm internal diameter, 5 μm column using a mobile phase of 2 mM ammonium acetate in 90:10 methanol/water, aqueous portion adjusted to pH 4 with glacial acetic acid, and a flowrate of 1 ml/min). […] Disappearance rate constants (k) in human microsomal preparations were determined by linear regression of the log ratio (compound under study/internal standard) versus time. The in vitro human microsomal half-lives were determined according to the equation t1/2=In 2/k. […]

[2] = molecular target: T1, cGMP PDE5 (human corp. cav.) (Homo sapiens, UniProt O76074); experiment: Phosphodiesterase (PDE) inhibitory activity, cGMP PDE5; format: biochemical; conditions: enzyme from human corpus cavernosum
T1 construct: from tissue; host or cells: human corpus cavernosum
Protocol: Compounds of the present invention are potent and selective cGMP PDE5 inhibitors. In vitro PDE inhibitory activities against cyclic guanosine 3′,5′-monophosphate (cGMP) and cyclic adenosine 3′,5′-monophosphate (cAMP) phosphodiesterases were determined by measurement of their IC50 values (the concentration of compound required for 50% inhibition of enzyme activity).
The required PDE enzymes were isolated from a variety of sources, including human corpus cavernosum, human platelets, human cardiac ventricle, human skeletal muscle and human and canine retina, essentially by the method of W. J. Thompson and M. M. Appleman (Biochem., 1971, 10, 311). […]
Assays were performed either using a modification of the “batch” method of W. J. Thompson et al. (Biochem., 1979, 18, 5228) or using a scintillation proximity assay for the direct detection of AMP/GMP using a modification of the protocol described by Amersham plc under product code TRKQ7090/7100. […] Plates were re-sealed and shaken for 20 min, after which the beads were allowed to settle for 30 min in the dark and then counted on a TopCount plate reader (Packard, Meriden, Conn.). Radioactivity units were converted to % activity of an uninhibited control (100%), plotted against inhibitor concentration and inhibitor IC50 values obtained using the ‘Fit Curve’ Microsoft Excel extension or in-house equivalent.

| HLM t1/2 [1] | Structure (SMILES) | pIC50 [2] | half-life at 1 μM ([1]; pH 7.4, read-out: HLM t1/2) |
| --- | --- | --- | --- |
| 4 min | CCCc1nc(C)c2c(=O)[nH]c(-c3cc(S(=O)(=O)N4CCN(CC)CC4)ccc3OCC)nn12 [Comound A, 2-[2-ethoxy-5-(4-ethyl-piperazin-1-yl-1-sulphonyl)-phenyl]-5-methyl-7-propyl-3H-imidazo[5,1-f][1,2,4]triazin-4-one, reference compound] |  |  |
|  | CCCCOc1ncc(C(C)=O)cc1-c1nn2c(CC)nc(C)c2c(=O)[nH]1 [Example 1, 2-(5-Acetyl-2-butoxy-3-pyridinyl)-7-ethyl-5-methylimidazo[5,1-f][1,2,4]triazin-4(3H)-one] | 8.87 | 21 min |
|  | CCCCOc1ncc(C(C)=O)cc1-c1nn2c(CC)nc(CCC)c2c(=O)[nH]1 [Example 2, 2-(5-Acetyl-2-butoxy-3-pyridinyl)-7-ethyl-5-propylimidazo[5,1-f][1,2,4]triazin-4(3H)-one] | 8.71 |  |
